Test results: patent US9181195B2, “Sigma receptor inhibitors” (Laboratorios Del Dr. Esteve, S.A., priority 2010, dated 2015)
Where a name gives a salt, the structure may show the parent alone.

Molecular target: T1, σ1-receptor (Cavia porcellus, UniProt Q60492)
T1 construct: guinea pig brains were homogenized; from tissue; host or cells: guinea pig brain membranes
Test: σ1-receptor binding assay, [3H](+)-pentazocine, guinea pig brain membranes
Details: [3H](+)-pentazocine 0.5 nM, non-specific binding 1 μM haloperidol, 37° C., 150 min
Procedure: Some representative compounds of the invention were tested for their activity as sigma (sigma-1) inhibitors. The following protocol was followed:
Brain membrane preparation and binding assays for the σ1-receptor were performed as described (DeHaven-Hudkins et al., 1992) with some modifications. In brief, guinea pig brains were homogenized in 10 vols. (w/v) of Tris-HCl 50 mM 0.32 M sucrose, pH 7.4, with a Kinematica Polytron PT 3000 at 15000 r.p.m. for 30 s. The homogenate was centrifuged at 1000 g for 10 min at 4° C. and the supernatants collected and centrifuged again at 48000 g for 15 min at 4° C. The pellet was resuspended in 10 volumes of Tris-HCl buffer (50 mM, pH 7.4), incubated at 37° C. for 30 min, and centrifuged at 48000 g for 20 min at 4° C. Following this, the pellet was resuspended in fresh Tris-HCl buffer (50 mM, pH 7.4) and stored on ice until use.
Each assay tube contained 10 μL of [^3H](+)-pentazocine (final concentration of 0.5 nM), 900 μL of the tissue suspension to a final assay volume of 1 mL and a final tissue concentration of approximately 30 mg tissue net weight/mL. Non-specific binding was defined by addition of a final concentration of 1 μM haloperidol. All tubes were incubated at 37° C. for 150 min before termination of the reaction by rapid filtration over Schleicher & Schuell GF 3362 glass fibre filters [previously soaked in a solution of 0.5% polyethylenimine for at least 1 h]. Filters were then washed with four times with 4 mL of cold Tris-HCl buffer (50 mM, pH 7.4). Following addition of scintillation cocktail, the samples were allowed to equilibrate overnight. The amount of bound radioactivity was determined by liquid scintillation spectrometry using a Wallac Winspectral 1414 liquid scintillation counter. Protein concentrations were determined by the method of Lowry et al, (1951).

T1 sequence (Q60492 whole entry): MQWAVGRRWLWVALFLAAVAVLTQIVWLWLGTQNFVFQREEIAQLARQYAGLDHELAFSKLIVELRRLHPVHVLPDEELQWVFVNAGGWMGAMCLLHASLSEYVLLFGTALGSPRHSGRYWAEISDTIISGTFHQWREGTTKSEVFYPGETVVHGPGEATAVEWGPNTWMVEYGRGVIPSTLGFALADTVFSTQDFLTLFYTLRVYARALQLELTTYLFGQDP

Structure (SMILES)	Ki
Cc1cc(COCCN2CCOCC2)nn1-c1ccc(Cl)c(Cl)c1 [Compound 1, 4-(2-{[1-(3,4-dichlorophenyl)-5-methyl-1H-pyrazol-3-yl]methoxy}ethyl)morpholine]	0.0138 µM
Cc1cc(COCCN2CCOCC2)nn1-c1ccc2ccccc2c1 [Compound 2, 4-(2-{[1-(2-naphthyl)-5-methyl-1H-pyrazol-3-yl]methoxy}ethyl)morpholine]	0.209 µM
Cc1cc(CCCN2CCOCC2)nn1-c1ccc2ccccc2c1 [Compound 4, 4-{3-[5-Methyl-1-(2-naphthyl)-1H-pyrazol-3-yl]propyl}morpholine]	0.132 µM
Cc1cc(COCCN2CCOCC2)nn1C1CCCCC1 [Compound 6, 4-(2-((1-cyclohexyl-5-methyl-1H-pyrazol-3-yl)methoxy)ethyl)-morpholine]	0.0236 µM
Cc1cc(COCCN2CCCC2)nn1-c1ccc(Cl)c(Cl)c1 [Compound 8, 1-(3,4-dichlorophenyl)-5-methyl-3-((2-(pyrrolidin-1-yl)ethoxy)methyl)-1H-pyrazole]	0.00612 µM
Cc1cc(COCCN2CCCCC2)nn1-c1ccc(Cl)c(Cl)c1 [Compound 9, 1-(2-((1-(3,4-dichlorophenyl)-5-methyl-1H-pyrazol-3-yl)methoxy)ethyl)-piperidine]	0.00209 µM
CC(=O)N1CCN(CCOCc2cc(C)n(-c3ccc(Cl)c(Cl)c3)n2)CC1 [Compound 10, 1-(4-(2-((1-(3,4-dichlorophenyl)-5-methyl-1H-pyrazol-3-yl)methoxy)ethyl)-piperazin-1-yl)-ethanone]	0.0146 µM
Cc1cc(COCCN2C[C@@H](C)O[C@@H](C)C2)nn1-c1ccc(Cl)c(Cl)c1 [Compound 11, (2S,6R)-4-(2-((1-(3,4-dichlorophenyl)-5-methyl-1H-pyrazol-3-yl)methoxy)ethyl)-2,6-dimethylmorpholine]	0.0032 µM
Cc1cc(COCCN2CCOCC2)nn1-c1cnc2ccccc2c1 [Compound 12, 4-(2-((5-methyl-1-(quinolin-3-yl)-1H-pyrazol-3-yl)methoxy)ethyl)-morpholine]	0.771 µM
Cc1cc(CCCN2CCOCC2)nn1-c1cnc2ccccc2c1 [Compound 14, 4-(3-(5-methyl-1-(quinolin-3-yl)-1H-pyrazol-3-yl)propyl)morpholine]	0.281 µM
Clc1ccc(-n2ccc(COCCN3CCOCC3)n2)cc1Cl [Compound 15, 4-(2-((1-(3,4-dichlorophenyl)-1H-pyrazol-3-yl)methoxy)ethyl)-morpholine]	0.00213 µM
Cc1c(COCCN2CCOCC2)nn(-c2ccc(Cl)c(Cl)c2)c1C [Compound 16, 4-(2-((1-(3,4-dichlorophenyl)-4,5-dimethyl-1H-pyrazol-3-yl)methoxy)ethyl)-morpholine]	0.0229 µM
c1ccc2ncc(-n3ccc(CCCN4CCOCC4)n3)cc2c1 [Compound 17, 4-(3-(1-(quinolin-3-yl)-1H-pyrazol-3-yl)propyl)morpholine]	0.154 µM
Cc1cc(COCCCN2CCOCC2)nn1C1CCCCC1 [Compound 20, 4-(3-((1-cyclohexyl-5-methyl-1H-pyrazol-3-yl)methoxy)propyl)-morpholine]	0.0068 µM
Cc1cc(COCCN2CCOCC2)nn1C1CCCC1 [Compound 21, 4-(2-((1-cyclopentyl-5-methyl-1H-pyrazol-3-yl)methoxy)ethyl)-morpholine]	0.24 µM
CC(=O)N1CCN(CCOCc2cc(C)n(C3CCCCC3)n2)CC1 [Compound 22, 1-(4-(2-((1-cyclohexyl-5-methyl-1H-pyrazol-3-yl)methoxy)ethyl)-piperazin-1-yl)ethanone hydrochloride]	0.101 µM
Cc1c(COCCN2CCOCC2)nn(C2CCCCC2)c1C [Compound 26, 4-(2-((1-cyclohexyl-4,5-dimethyl-1H-pyrazol-3-yl)methoxy)ethyl)-morpholine hydrochloride]	0.11 µM

The remaining molecules from weak to strong by Ki, led by results:

Ki	Structure (SMILES)
0.488 µM	Cc1cc(COCCN2C[C@@H](C)N[C@@H](C)C2)nn1C1CCCCC1 [Compound 23, (3S,5R)-1-(2-((1-cyclohexyl-5-methyl-1H-pyrazol-3-yl)methoxy)ethyl)-3,5-dimethylpiperazine hydrochloride]
0.266 µM	Cc1cc(CCOCCN2CCOCC2)nn1C1CCCCC1 [Compound 24, 4-(2-(2-(1-cyclohexyl-5-methyl-1H-pyrazol-3-yl)ethoxy)ethyl)-morpholine hydrochloride]
0.113 µM	Cc1cc(CCOCCN2CCOCC2)nn1-c1ccc(Cl)c(Cl)c1 [Compound 5, 4-(2-{2-[1-(3,4-dichlorophenyl)-5-methyl-1H-pyrazol-3-yl]ethoxy)ethyl}morpholine]
0.0533 µM	Cc1cc(CCCN2CCOCC2)nn1C1CCCCC1 [Compound 7, 4-(3-(1-cyclohexyl-5-methyl-1H-pyrazol-3-yl)propyl)morpholine]
0.0113 µM	c1cn(C2CCCCC2)nc1COCCN1CCOCC1 [Compound 25, 4-(2-((1-cyclohexyl-1H-pyrazol-3-yl)methoxy)ethyl)-morpholine-hydrochloride]
0.00862 µM	Cc1cc(CCCCN2CCOCC2)nn1-c1ccc(Cl)c(Cl)c1 [Compound 13, 4-(4-(1-(3,4-dichlorophenyl)-5-methyl-1H-pyrazol-3-yl)butyl)morpholine]
0.00628 µM	Clc1ccc(-n2ccc(CCCCN3CCOCC3)n2)cc1Cl [Compound 18, 4-(4-(1-(3,4-dichlorophenyl)-1H-pyrazol-3-yl)butyl)morpholine]
0.00474 µM	Cc1cc(CCCN2CCOCC2)nn1-c1ccc(Cl)c(Cl)c1 [Compound 3, 4-{3-[1-(3,4-dichlorophenyl)-5-methyl-1H-pyrazol-3-yl]propyl}morpholine]
